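Briefly, cells in 96-well plates were exposed to five compound concentrations for 48 h, and endpoints were estimated by linear interpolation. Abbreviation: GI50, concentration required for 50% inhibition of growth. TGI: concentration producing complete growth inhibition.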
Experiments:
Assay in all cases: growth of human tumour cells (NCI), 48 h
[1] = system: EKVX NSCLC
[2] = system: HCT-15 colon
[3] = system: HOP-92 NSCLC
[4] = system: LOX IMVI melanoma
[5] = system: NCI-H226 lung
[6] = system: OVCAR-8 ovarian
[7] = system: SK-MEL-2 melanoma
[8] = system: UO-31 renal
[9] = system: HS 578T breast
[10] = system: MDA-MB-231 breast

## NC(=O)C(=O)Cc1nc2ccccc2s1
[1]
  TGI: > 100 µM
[2]
  TGI: > 100 µM
[3]
  TGI: > 100 µM
[4]
  TGI: > 100 µM
[5]
  TGI: > 100 µM
[6]
  TGI: > 100 µM
[7]
  TGI: > 100 µM
[8]
  TGI: > 100 µM

## CON(C)C(=O)C(C)NC(=O)OC(C)(C)C (stereo not drawn)
[1]
  TGI: > 100 µM
[2]
  TGI: > 100 µM
[3]
  TGI: > 100 µM
[9]
  TGI: > 100 µM
[5]
  TGI: > 100 µM
[6]
  TGI: > 100 µM
[8]
  TGI: > 100 µM

## COc1ccc2c3c(c(C(=O)O)oc13)C(CCC(=O)O)CC2 (stereo not drawn)
[1]
  TGI: > 100 µM
[2]
  TGI: > 100 µM
[3]
  TGI: > 100 µM
[4]
  TGI: > 100 µM
[6]
  TGI: > 100 µM

## c1ccc2c(c1)[O][Sn][O]2
[1]
  GI50: > 150 µg/mL
  TGI: > 150 µg/mL
[2]
  GI50: 20.6 µg/mL
  TGI: > 150 µg/mL
[3]
  GI50: 64.8 µg/mL
  TGI: > 150 µg/mL
[4]
  GI50: 27.8 µg/mL
  TGI: 112 µg/mL
[5]
  GI50: 69.5 µg/mL
  TGI: > 150 µg/mL
[6]
  GI50: 45.3 µg/mL
  TGI: > 150 µg/mL
[7]
  GI50: 92.6 µg/mL
  TGI: > 150 µg/mL
[8]
  GI50: 12.6 µg/mL
  TGI: > 150 µg/mL

## C/C(CC(=O)Nc1cccc(Cl)c1C)=N\N=C(N)N
[1]
  TGI: > 100 µM
[2]
  TGI: > 100 µM
[3]
  TGI: > 100 µM
[4]
  TGI: > 100 µM
[5]
  TGI: > 100 µM
[6]
  TGI: > 100 µM
[7]
  TGI: > 100 µM
[8]
  TGI: > 100 µM

## Cc1csc(CCC(N)C(=O)O)n1 (stereo not drawn)
[1]
  TGI: > 100 µM
[2]
  TGI: > 100 µM
[3]
  TGI: > 100 µM
[4]
  TGI: > 100 µM
[5]
  TGI: > 100 µM
[6]
  TGI: > 100 µM
[8]
  TGI: > 100 µM

## CN(C)CCNC(=O)c1cccc2cc3ccc4ccccc4c3nc12
[1]
  TGI: 0.495 µM
[2]
  TGI: 0.593 µM
[3]
  TGI: 0.593 µM
[4]
  TGI: 0.256 µM
[5]
  TGI: 0.488 µM
[6]
  TGI: 0.316 µM
[7]
  TGI: 0.406 µM
[8]
  TGI: 0.218 µM

## COC(=O)c1cc2ccccc2c2nc3ccccc3c(Cl)c12
[1]
  TGI: > 100 µM
[2]
  TGI: > 100 µM
[3]
  TGI: > 100 µM
[4]
  TGI: > 100 µM
[6]
  TGI: > 100 µM
[7]
  TGI: > 100 µM

## O[C@]12c3ccccc3C1CCCCC2N1CCOCC1 (stereo partly drawn)
[1]
  TGI: > 100 µM
[2]
  TGI: > 100 µM
[4]
  TGI: > 100 µM
[5]
  TGI: > 100 µM
[6]
  TGI: > 100 µM
[7]
  TGI: > 100 µM
[8]
  TGI: > 100 µM

## Cc1c(C)c2ccc(OC(C)C(=O)O)cc2oc1=O (stereo not drawn)
[1]
  TGI: > 100 µM
[3]
  TGI: > 100 µM
[4]
  TGI: > 100 µM
[5]
  TGI: > 100 µM
[6]
  TGI: > 100 µM
[8]
  TGI: > 100 µM

## O=C1c2ccccc2-c2c1c1ccc([N+](=O)[O-])cc1c(=O)n2CCCCl
[1]
  GI50: > 100 µM
  TGI: > 100 µM
[2]
  GI50: > 100 µM
  TGI: > 100 µM
[3]
  GI50: 22.9 µM
  TGI: > 100 µM
[4]
  GI50: 3.24 µM
  TGI: > 100 µM
[10]
  GI50: 11.3 µM
  TGI: 57.7 µM
[6]
  GI50: 72.1 µM
  TGI: > 100 µM
[7]
  GI50: > 100 µM
  TGI: > 100 µM
[8]
  GI50: 6.4 µM
  TGI: > 100 µM

## O=C(Nc1ccc(Br)cc1)Nc1cccc(Br)c1
[9]
  GI50: > 100 µM
  TGI: > 100 µM
[10]
  GI50: 30.5 µM
  TGI: > 100 µM
[5]
  GI50: 47.1 µM
  TGI: > 100 µM
[7]
  GI50: 5.7 µM
  TGI: > 100 µM

## CC1(C)CC(O)CC(C)(C)N1.CC1(C)CC(O)CC(C)(C)N1.CC1(C)CC(O)CC(C)(C)N1.CC1(C)CC(O)CC(C)(C)N1.Cl.[Ti]
[2]
  GI50: > 100 µM
  TGI: > 100 µM
[3]
  GI50: > 100 µM
  TGI: > 100 µM
[4]
  GI50: > 100 µM
  TGI: > 100 µM
[5]
  GI50: > 100 µM
  TGI: > 100 µM
[6]
  GI50: > 100 µM
  TGI: > 100 µM
[7]
  GI50: > 100 µM
  TGI: > 100 µM
[8]
  GI50: > 100 µM
  TGI: > 100 µM

## Nc1c(C(=O)Nc2ccccc2O)[n+]([O-])c2ccccc2[n+]1[O-]
[1]
  TGI: > 100 µM
[2]
  TGI: > 100 µM
[3]
  TGI: > 100 µM
[5]
  TGI: > 100 µM
[6]
  TGI: > 100 µM
[7]
  TGI: > 100 µM
[8]
  TGI: > 100 µM

## CC(C)=CC(=O)CC(=O)C(=O)NCCNC(=O)C(=O)CC(=O)C=C(C)C
[1]
  TGI: > 50 µM
[2]
  TGI: > 50 µM
[3]
  TGI: > 50 µM
[4]
  TGI: > 50 µM
[5]
  TGI: > 50 µM
[6]
  TGI: > 50 µM
[7]
  TGI: > 50 µM
[8]
  TGI: > 50 µM

## O=C(Nc1ccc(Cl)c(Cl)c1)C1C(=O)N(c2ccc(Cl)c(Cl)c2)C(=O)/C1=N\O (stereo not drawn)
[1]
  TGI: > 100 µM
[2]
  TGI: > 100 µM
[3]
  TGI: > 100 µM
[4]
  TGI: 87.7 µM
[5]
  TGI: > 100 µM
[6]
  TGI: > 100 µM
[7]
  TGI: > 100 µM
[8]
  TGI: > 100 µM

## Cc1cc(OC(=O)c2c(C)cc(OC(=O)c3c(C)cc(O)cc3O)cc2O)cc(O)c1C(=O)O
[1]
  TGI: > 100 µM
[3]
  TGI: > 100 µM
[4]
  TGI: > 100 µM
[6]
  TGI: > 100 µM
[7]
  TGI: > 100 µM
[8]
  TGI: > 100 µM

## CC1=C(C(=O)CC(=O)C(=O)Nc2ccccc2C)Sc2ccccc2N1
[1]
  TGI: > 100 µM
[2]
  TGI: > 100 µM
[3]
  TGI: > 100 µM
[4]
  TGI: > 57.4 µM
[5]
  TGI: > 100 µM
[6]
  TGI: > 100 µM
[7]
  TGI: > 100 µM
[8]
  TGI: > 100 µM

From PubChem BioAssay (NCI)
